In patent publication US4870097A, “Pharmaceutical use of derivatives of tryptophan” (priority 1984, dated 1989):
Entries after “also recorded” stand apart in the source; their conditions may differ.

Tests used:
[1] = test system: activity of analgesic drugs; test: Hot plate test: potentiation of analgesic drugs; format: in vivo, rats
Experimental: The method is that described by Eddy et al. (J. Pharmac. Exp. Ther. 107, 385 (1953)).
Groups of five male rats having a weight of about 150 g and which have not been fasting are used.
The animals are placed on a metal plate which is on the bottom of a transparent cylinder heated to 55°±1° C. by an azeotropic boiling mixture (1:1 acetone-ethyl formate). The time which passes between the moment at which the animal is placed on the hot plate and the moment at which it licks its feet or tries to jump out of the cylinder is defined as the reaction time. The control reaction time is measured 10 and 5 minutes before the administration of the drugs and 10, 20, 30, 45, 60, 90 minutes afterwards. The animals are left on the plate for a maximum period of 30 seconds.
The response to the administration of the product is considered positive if at least a doubling of the normal reaction time is seen. The results obtained are given in Table 2 which records the groups treated, the dose administered and the stay times on the plate expressed as the number of positive responses over the number treated.

[2] = test system: tolerance induced by morphine; test: Antagonism to the development of tolerance to repeated administration of morphine HCl (tail flick); format: in vivo, rats
Experimental: Several of the compounds of the invention were examined to determine any capacity to antagonise the development of tolerance induced by morphine. Groups of six male rats having a weight of about 200-250 were used.
At intervals of 24 hours from the first treatment (time 0), each animal (except for the control group treated with a physiological solution) received 3 mg/kg of morphine hydrochloride i.p. together with 3 mg/kg i.p. of the compounds indicated (with the exception of the group treated solely with morphine).
The determination of the threshold for the pain stimulus was effected at 15°, 30', 45' and 60' intervals from the treatment by the "tail flick" test.

[3] = test system: guinea pig gall bladder contracted with CCK-8; test: Anti-CCK activity on guinea pig gall bladders in vitro; format: biochemical; conditions: CCK-8 10 ng/ml, concentration antagonising 50% of contracting effect
In short: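 Longitudinal gall bladder strips in Krebs at 32° C, gassed with O2/CO2 95:5, were contracted with CCK-8 at 10 ng/ml and contractions recorded isometrically via force transducer. ED50 in mcg/ml is the compound concentration antagonising 50% of CCK contraction, derived by regression over at least three experiments.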

[4] = test system: analgesic activity of morphine; test: Tail Flick Test: increase in the analgesic effect of morphine; format: in vivo, rats
In short: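 Male non-fasted rats, 150-200 g; heat source (75 °C) on tail, latency to tail movement timed, 8 s cut-off. Measured before and 10, 20, 30, 45, 60, 90 min after analgesic dosing; percentage variation per animal, averaged over groups of five.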

endogenous opiates = test: Tail Flick Test after transcutaneous shock: analgesic activity of endogenous opiates; format: in vivo, rats; conditions: for Average latency, 5': 5' after electric shock; for Average latency, 10': 10' after electric shock; for Average latency, 15': 15' after electric shock
Experimental: Influence of several of the compounds of the invention on the analgesic activity of endogenous opiates released under transcutaneous shock in rats measured by the Tail Flick Test
The method is that described by Lewis et al. (J. Neurosc. 1, 358 (1981). Male rats having a weight of about 200 g, which have not been fasting, are used.
The animals are stressed by the application to the front leg of a 60 Hz-2.5 mA current in pulses of a duration of one second every five seconds for 20 minutes.
This stress regime causes the release of endogenous opiates.

[5] = acetylsalicylic acid 100 + C. 26 5 mg/kg i.p.
[6] = acetylsalicylic acid 100 + C. 26 10 mg/kg i.p.
[7] = acetylsalicylic acid 100 + C. 26 20 mg/kg i.p.
[8] = propoxyphene 15 + C. 26 1 mg/kg i.p.
[9] = propoxyphene 15 + C. 26 2.5 mg/kg i.p.
[10] = propoxyphene 15 + C. 26 5.0 mg/kg i.p.
[11] = days 0-7, 3 mg/kg + morphine (row Morphine: alone)

CCCCCCc1ccc(C(=O)N[C@@H](Cc2c[nH]c3ccccc23)C(=O)O)cc1 [Compound 26]
Positive Total X/25 [1, 5]: 15
positive responses over the number treated, 10' [1, 5]: 3/5
positive responses over the number treated, 20' [1, 5]: 2/5
positive responses over the number treated, 30' [1, 5]: 4/5
positive responses over the number treated, 45' [1, 5]: 4/5
positive responses over the number treated, 60' [1, 5]: 2/5
Positive Total X/25 [1, 6]: 21
positive responses over the number treated, 10' [1, 6]: 5/5
positive responses over the number treated, 20' [1, 6]: 4/5
positive responses over the number treated, 30' [1, 6]: 5/5
positive responses over the number treated, 45' [1, 6]: 4/5
positive responses over the number treated, 60' [1, 6]: 3/5
Positive Total X/25 [1, 7]: 23
positive responses over the number treated, 10' [1, 7]: 4/5
positive responses over the number treated, 20' [1, 7]: 5/5
positive responses over the number treated, 30' [1, 7]: 5/5
positive responses over the number treated, 45' [1, 7]: 5/5
positive responses over the number treated, 60' [1, 7]: 4/5
Positive Total X/25 [1, 8]: 15
positive responses over the number treated, 10' [1, 8]: 2/5
positive responses over the number treated, 20' [1, 8]: 3/5
positive responses over the number treated, 30' [1, 8]: 4/5
positive responses over the number treated, 45' [1, 8]: 3/5
positive responses over the number treated, 60' [1, 8]: 3/5
Positive Total X/25 [1, 9]: 20
positive responses over the number treated, 10' [1, 9]: 3/5
positive responses over the number treated, 20' [1, 9]: 5/5
positive responses over the number treated, 30' [1, 9]: 5/5
positive responses over the number treated, 45' [1, 9]: 4/5
positive responses over the number treated, 60' [1, 9]: 3/5
Positive Total X/25 [1, 10]: 24
positive responses over the number treated, 10' [1, 10]: 4/5
positive responses over the number treated, 20' [1, 10]: 5/5
positive responses over the number treated, 30' [1, 10]: 5/5
positive responses over the number treated, 45' [1, 10]: 5/5
positive responses over the number treated, 60' [1, 10]: 5/5
analgesic activity of propoxyphene (in words) ([1]; with propoxyphene, 2.5 mg/kg i.p. (double), 5 mg/kg i.p. (maximum effect)): at least double the analgesic activity of propoxyphene; also recorded: a maximum effect
percentage variation in the latency time, day 0 ([2]; day 0, 3 mg/kg i.p. + morphine HCl 3 mg/kg i.p. (row Morphine: alone)): 74.14%
percentage variation in the latency time, day 1 ([2]; day 1, 3 mg/kg i.p. + morphine HCl 3 mg/kg i.p. (row Morphine: alone)): 45.73%
percentage variation in the latency time, day 2 ([2]; day 2, 3 mg/kg i.p. + morphine HCl 3 mg/kg i.p. (row Morphine: alone)): 59.5%
percentage variation in the latency time, day 3 ([2]; day 3, 3 mg/kg i.p. + morphine HCl 3 mg/kg i.p. (row Morphine: alone)): 51.52%
percentage variation in the latency time, day 4 ([2]; day 4, 3 mg/kg i.p. + morphine HCl 3 mg/kg i.p. (row Morphine: alone)): 43.40%
percentage variation in the latency time, day 5 ([2]; day 5, 3 mg/kg i.p. + morphine HCl 3 mg/kg i.p. (row Morphine: alone)): 37.60%
percentage variation in the latency time, day 6 ([2]; day 6, 3 mg/kg i.p. + morphine HCl 3 mg/kg i.p. (row Morphine: alone)): 21.43%
percentage variation in the latency time, day 7 ([2]; day 7, 3 mg/kg i.p. + morphine HCl 3 mg/kg i.p. (row Morphine: alone)): 29.75%
Area subtended (1) [2, 11]: 366.7 Effect-Day
regression line % Effect versus Day [2, 11]: % Effect = - 6.02 Day + 66.5
Area 1 / Area Morphine ([2]; days 0-7, 3 mg/kg + morphine, ratio to morphine alone): 2.61
Anti CCK-8 activity, ED50 [3]: 152.1 µg/mL
percentage variation in the latency of the pain sensation, 10' ([4]; 10', compound 10 mg/kg i.p. + morphine 2 mg/kg (row Morphine: alone), ± S.E.): 100.0 ± 0.0%
percentage variation in the latency of the pain sensation, 20' ([4]; 20', compound 10 mg/kg i.p. + morphine 2 mg/kg (row Morphine: alone), ± S.E.): 87.6 ± 9.2%
percentage variation in the latency of the pain sensation, 30' ([4]; 30', compound 10 mg/kg i.p. + morphine 2 mg/kg (row Morphine: alone), ± S.E.): 100.0 ± 0.0%
percentage variation in the latency of the pain sensation, 45' ([4]; 45', compound 10 mg/kg i.p. + morphine 2 mg/kg (row Morphine: alone), ± S.E.): 100.0 ± 0.0%
percentage variation in the latency of the pain sensation, 60' ([4]; 60', compound 10 mg/kg i.p. + morphine 2 mg/kg (row Morphine: alone), ± S.E.): 100.0 ± 0.0%
percentage variation in the latency of the pain sensation, 90' ([4]; 90', compound 10 mg/kg i.p. + morphine 2 mg/kg (row Morphine: alone), ± S.E.): 84.5 ± 9.8%
M(10'-90') average percentage variation ([4]; mean 10'-90', compound 10 mg/kg i.p. + morphine 2 mg/kg (row Morphine: alone)): 96.3%
Potency ratio relative to morphine alone ([4]; rat, in vivo): 3.2
Average latency, 5' (endogenous opiates; 0.5 mg/kg i.v. + stress): 6.62 ± 0.72 s
Average latency, 5' (endogenous opiates; 2 mg/kg i.v. + stress): 11.0 ± 0.65 s
Average latency, 10' (endogenous opiates; 0.5 mg/kg i.v. + stress): 6.1 ± 0.61 sec.
Average latency, 10' (endogenous opiates; 2 mg/kg i.v. + stress): 9.28 ± 0.78 sec.
Average latency, 15' (endogenous opiates; 0.5 mg/kg i.v. + stress): 5.52 ± 0.9 s
Average latency, 15' (endogenous opiates; 2 mg/kg i.v. + stress): 6.84 ± 0.73 s
